These results are taken from patent publication US5977169A, “Substituted tetronic acids useful for treating HIV and other retroviruses” (priority 1997, dated 1999).

Experiment [1] concerns viral reverse transcriptase. The settings on record: literature; cited from earlier work.
Experiment [2] has as its target T1, HIV-1 protease (Human immunodeficiency virus type 1 group M subtype B, UniProt P04585).
T1 construct: The protease (or proteinase) enzyme, consisting of only 99 amino acids
In words: In vitro HIV protease inhibitory assay (fluorescently labeled substrate, avidin-polystyrene particles). The settings on record: for inhibition at 3.3 µM: HIV-1 dose 3.3 μM; for inhibition at 10 µM: HIV-1 dose 10.0 μM; for inhibition at 30 µM: HIV-1 dose 30.0 μM. The class given is biochemical. The method in brief:
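Biotinylated, FITC-labelled peptide substrate cleaved by HIV-1 protease for 1 h at room temperature in the dark, in 0.1 M sodium acetate pH 5.5 with 1.0 M NaCl and 0.05% NP-40. Product separated from substrate with avidin-polystyrene beads and filtration; fluorescence read as percent inhibition at stated compound concentrations.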

Experiment [3] deals with HIV-1IIIB. Put plainly: Inhibition of retroviral replication in human T-cell lines, e.g., MT4 and H9, infected with HIV-1IIIB. The class given is cell-based.
The test system of experiment [4] is HIV-I protease. Particulars: literature; cited from earlier work.

Square brackets hold non-standard residues; d marks the D form. Peptide text beside a SMILES is read from it. * marks the point of attachment. Sta = CC(C)C[C@H](N)[C@@H](O)CC(=O)O; Isovaleryl = CC(C)CC(=O)*

Turning to `Cc1cn([C@H]2C[C@H](N=[N+]=[N-])[C@@H](CO)O2)c(=O)[nH]c1=O` [AZT, 3-azido-3-deoxythymidine], the “inhibition of viral reverse transcriptase” value in experiment [1] was “known inhibitor of viral reverse transcriptase”.
As to `CCCC1(CCC)OC(=O)C(C(c2cccc(NS(=O)(=O)c3ccc(C#N)cc3)c2)C2CC2)=C1O` (centres unmarked) [IX-14], in experiment [2], the inhibition at 3.3 µM was 113%, the inhibition at 10 µM amounted to 111% and the inhibition at 30 µM came to 119%. Moreover, the “inhibition of retroviral replication” value in experiment [3] was “found to inhibit retroviral replication”.
As for `CCCC1(CCC)OC(=O)C(C(c2cccc(NS(=O)(=O)c3cn(C)cn3)c2)C2CC2)=C1O` (centres unmarked) [IX-17], in experiment [2], the inhibition at 3.3 µM is 108%, the inhibition at 10 µM turned out to be 111% and the inhibition at 30 µM turned out to be 108%. Besides, in experiment [3], the “inhibition of retroviral replication” value is on record as “found to inhibit retroviral replication”.
`CCCC1(CCC)OC(=O)C(C(c2cccc(NS(=O)(=O)c3cn(C)cn3)c2)C(C)C)=C1O` (centres unmarked) [IX-24, 1H-Imidazole-4-sulfonamide, N-(3-(1-(4-hydroxy-2-oxo-5,5-dipropyl-2,5-dihydro-furan-3-yl)-2-methyl-propyl)-phenyl)-1-methyl-]: in experiment [2], the inhibition at 3.3 µM came to 102%, the inhibition at 10 µM was 101% and the inhibition at 30 µM is 102%. In experiment [3], the “inhibition of retroviral replication” value is “found to inhibit retroviral replication”.
Take `CC/C=C1\OC(=O)C(C(c2ccccc2)C2CC2)=C1O` (centres unmarked) [JX-3, 3-(Cyclopropyl-phenyl-methyl)-4-hydroxy-5-propylidene-5H-furan-2-one]: in experiment [2], the inhibition at 3.3 µM stood at 43.2%, the inhibition at 10 µM was 65.3% and the inhibition at 30 µM came out at 96.3%.
On to `CCC/C=C1\OC(=O)C(C(c2ccccc2)C2CC2)=C1O` (centres unmarked) [JX-4, 5-Butylidene-3-(cyclopropyl-phenyl-methyl)-4-hydroxy-5H-furan-2-one], for which, in experiment [2], the inhibition at 3.3 µM worked out at 85.9%, the inhibition at 10 µM amounted to 99.2% and the inhibition at 30 µM is 113%.
As for `CC(C)(C)OC(=O)N1CCC2(CC1)OC(=O)C(C(c1ccccc1)C1CC1)=C2O` (centres unmarked) [OX-1, 3-(Cyclopropyl-phenyl-methyl)-4-hydroxy-2-oXo-1-oca-8-aza-spiro[4.5]dec-3-ene-8-carboxylic acid tert-butyl ester], in experiment [2], the inhibition at 3.3 µM was found to be 78.8%, the inhibition at 10 µM worked out at 89.9% and the inhibition at 30 µM came to 100%.
Take `O=C1OC2(CCNCC2)C(O)=C1C(c1ccccc1)C1CC1` (centres unmarked) [OX-2, 3-(Cyclopropyl-phenyl-methy1)-4-hydroxy--1-oXa-8-aza-spiro[4.5]dec-3-en-2-one]: in experiment [2], the inhibition at 3.3 µM was determined as 14.9%, the inhibition at 10 µM was found to be 34.1% and the inhibition at 30 µM is 59%.
For the compound `CC(C)CC(=O)N[C@H](C(=O)N[C@H](C(=O)N[C@@H](CC(C)C)[C@@H](O)CC(=O)N[C@@H](C)C(=O)N[C@@H](CC(C)C)[C@@H](O)CC(=O)O)C(C)C)C(C)C` [Pepstatin A] (Isovaleryl-VV[Sta]A[Sta]-OH), in experiment [4], the “inhibition of HIV-I protease” value is listed as “disclosed as an inhibitor of HIV-I protease”.

As usually defined, the inhibition is the drop in the measured response relative to a control, in per cent.
